Data published in US20240390328A1, “PHARMACEUTICAL COMPOSITION CONTAINING AS ACTIVE INGREDIENT COMPOUND CONJUGATED TO G4 STRUCTURES OF CORONAVIRUSES FOR PREVENTION OR TREATMENT OF CORONAVIRUS INFECTIOUS DISEASES” (priority 2020, published 2024).
Read-outs that look alike come from different tables or passages of the source.

Assays:
SARS-COV-2 [1] = assay: microbe, parasite or virus in culture; type: cell-based; settings: for suppression of SARS-COV-2 infection (N protein expression), in words: 0.08 to 50 μM; for IC50: read-out: IC50, suppressing SARS-COV-2 infection (N protein expression)
HCoV-OC43 = HCoV-OC43 dose response curve analysis, virion production (plaque assay), HCT-8 cells; type: cell-based; settings: 0.05 MOI, 72 hours after infection
[2] = tested on: SARS-COV-2 RNA G4, position 644 (NsP1); assay: CD thermal melting analysis, G4 No. 2; type: binding; settings: G4 No. 2, position 644, NsP1; 15 μM RNA G4, 30 μM compound
Experimental: (§1) For melting, the samples were heated at 25 to 95° C. at 2° C./min with a data pitch of 0.5° C. CD melting analyses were performed with and without G4-binding compounds. The ratio of RNA: G4-binding compound was set to a molar ratio of 1:2. 15 μM RNA G4 was treated with 30 μM G4-binding compound and incubated at room temperature in a buffer comprising 10 mM Tris-HCl (pH 7.5) and 100 mM KCl for 30 minutes. Ellipticity was measured at 265 nm. Thereafter, data were normalized and plotted in OriginPro 2017 to calculate Tm values.
(§2) In addition, 15 μM RNA G4 was treated with 30 μM compound and incubated, and a CD thermal melting curve of RNA G4 (15 μM) was obtained in the presence or absence of the G4-binding compound. Furthermore, the effect of G4-binding compounds on the stability of SARS-COV-2 G4 was confirmed by measuring the difference in melting temperature (ΔTm). The results are illustrated in FIGS. 6A and 6B.

[3] = tested on: SARS-COV-2 RNA G4, position 1574 (NsP2); assay: CD thermal melting analysis, G4 No. 4; type: binding; settings: G4 No. 4, position 1574, NsP2; 15 μM RNA G4, 30 μM compound
Experimental: as §1, §2

[4] = tested on: SARS-COV-2 RNA G4, position 4261 (NsP3); assay: CD thermal melting analysis, G4 No. 8; type: binding; settings: G4 No. 8, position 4261, NsP3; 15 μM RNA G4, 30 μM compound
Experimental: as §1, §2

[5] = tested on: SARS-COV-2 RNA G4, position 14947 (NsP12); assay: CD thermal melting analysis, G4 No. 12; type: binding; settings: G4 No. 12, position 14947, NsP12; 15 μM RNA G4, 30 μM compound
Experimental: as §1, §2

SARS-COV-2 [6] = assay: microbe, parasite or virus in culture; type: cell-based; settings: Vero cells, read-out: IC50, virion production
[7] = tested on: SARS-COV-2 RNA G4, position 26746 (Membrane protein); assay: CD thermal melting analysis, G4 No. 21; type: binding; settings: G4 No. 21, position 26746, Membrane protein; 15 μM RNA G4, 30 μM compound
Experimental: as §1, §2

[8] = tested on: SARS-COV-2 RNA G4, position 2714 (NsP2 + NsP3); assay: CD thermal melting analysis, G4 No. 5; type: binding; settings: G4 No. 5, position 2714, NsP2 + NsP3; 15 μM RNA G4, 30 μM compound
Experimental: as §1, §2

Vero cells = assay: Cell viability analysis (EZ Cytox), Vero cells; type: cell-based; settings: up to 75 μM after 48 hours
Experimental: (§3) Human embryonic kidney (HEK293T) cells and Vero cells were maintained in high-glucose Dulbecco's Modified Eagle's Medium (DMEM) supplemented with 10% fetal bovine serum (FBS) and 1% penicillin-streptomycin, and cultured in a humidified incubator at 37° C. and 5% CO2.
(§4) Cytotoxicity was analyzed using an EZ Cytox assay kit (DogenBio, Korea). HEK293T and Vero cells were put into a 96-well plate at a density of 2×10^4 cells/well in a medium volume of 100 μl/well and cultured at 37° C. for 24 hours. After 24 hours, the cells were treated with the G4-binding compound at various concentrations (0.1, 0.5, 1, 2.5, 5.5, 7.5, 10, 25, 50, and 75 μM) and cultured at 37° C. for 24 hours or 48 hours. Cell viability (%) was calculated by measuring the absorbance value at 455 nm (Luminescence multi-mode microplate reader Synergy™ Neo2) and using the following Equation 1. All experiments were performed in triplicate, and cells untreated with the compound were used as a control. DMEM with the EZ Cytox reagent was used as a blank.
(§5) The toxicity of PDS and PhenDC3 was confirmed in HEK293T cells and Vero cells. The results are illustrated in FIGS. 7A to 7D.

N1-Mut-G4-3467 = type: biochemical, SARS-COV-2; settings: N1-Mut-G4-3467, 5, 15, 25 and 50 μM
[9] = tested on: SARS-COV-2 RNA G4, position 3467 (NsP3); assay: CD thermal melting analysis, G4 No. 6; type: binding; settings: G4 No. 6, position 3467, NsP3; 15 μM RNA G4, 30 μM compound
Experimental: as §1, §2

[10] = tested on: SARS-COV-2 RNA G4, position 353 (NsP1); assay: CD thermal melting analysis, G4 No. 1; type: binding; settings: G4 No. 1, position 353, NsP1; 15 μM RNA G4, 30 μM compound
Experimental: as §1, §2

N1-WT-G4-644 (Nsp1 G4) = assay: In-vitro transcription/translation (IVT) analysis, EYFP reporter western blot, N1-WT-G4-644; type: biochemical, SARS-COV-2; settings: N1-WT-G4-644, compound at 5 μM
N1-WT-G4-3467 (Nsp3 G4) = assay: In-vitro transcription/translation (IVT) analysis, EYFP reporter western blot, N1-WT-G4-3467; type: biochemical, SARS-COV-2; settings: N1-WT-G4-3467, compound at 50 μM
[11] = tested on: 25 G4s predicted for SARS-COV-2; assay: CD thermal melting analysis, comparison of ΔTm over all G4s; type: binding
N1-WT-G4-353 (Nsp1 G4) = assay: In-vitro transcription/translation (IVT) analysis, EYFP reporter western blot, N1-WT-G4-353; type: biochemical, SARS-COV-2
[12] = tested on: SARS-COV-2 RNA G4, position 18296 (NsP12); assay: CD thermal melting analysis, G4 No. 15; type: binding; settings: G4 No. 15, position 18296, NsP12; 15 μM RNA G4, 30 μM compound
Experimental: as §1, §2

[13] = tested on: SARS-COV-2 RNA G4, position 1463 (NsP2); assay: CD thermal melting analysis, G4 No. 3; type: binding; settings: G4 No. 3, position 1463, NsP2; 15 μM RNA G4, 30 μM compound
Experimental: as §1, §2

[14] = tested on: SARS-COV-2 RNA G4, position 28781 (Nucleocapsid protein); assay: CD thermal melting analysis, G4 No. 22; type: binding; settings: G4 No. 22, position 28781, Nucleocapsid protein; 15 μM RNA G4, 30 μM compound
Experimental: as §1, §2

HEK293T cells = assay: Cell viability analysis (EZ Cytox), HEK293T cells; type: cell-based, Human; settings: at 75 µM, after 48 hours
Experimental: as §3, §4, §5

[15] = tested on: SARS-COV-2 RNA G4, position 28903 (Nucleocapsid protein); assay: CD thermal melting analysis, G4 No. 23; type: binding; settings: G4 No. 23, position 28903, Nucleocapsid protein; 15 μM RNA G4, 30 μM compound
Experimental: as §1, §2

[16] = tested on: SARS-COV-2 RNA G4, position 25197 (Surface glycoprotein); assay: CD thermal melting analysis, G4 No. 19; type: binding; settings: G4 No. 19, position 25197, Surface glycoprotein; 15 μM RNA G4, 30 μM compound
Experimental: as §1, §2

[17] = tested on: SARS-COV-2 RNA G4, position 10261 (NsP5); assay: CD thermal melting analysis, G4 No. 10; type: binding; settings: G4 No. 10, position 10261, NsP5; 15 μM RNA G4, 30 μM compound
Experimental: as §1, §2

[18] = Severe acute respiratory syndrome coronavirus 2, Vero cells, 0.0125 MOI, 24 hours

## CN(C)c1ccc(Nc2c3ccc(NC(=O)CCN4CCCC4)cc3nc3cc(NC(=O)CCN4CCCC4)ccc23)cc1 [BRACO19, N-[9-[4-(dimethylamino)anilino]-6-(3-pyrrolidin-1-ylpropanoylamino)acridin-3-yl]-3-pyrrolidin-1-ylpropanamide]
SARS-COV-2 [1]; Vero cells
  suppression of SARS-COV-2 infection (N protein expression), in words: suppressed SARS-COV-2 infection at high concentrations

## CCC1=C(C)c2cc3[nH]c(cc4nc(cc5c(CC)c(C)c(cc1n2)n5C)C(C)=C4CCC(=O)O)c(CCC(=O)O)c3C [NMM, 3-[18-(2-carboxyethyl)-7,12-diethyl-3,8,13,17,22-pentamethyl-23H-porphyrin-2-yl]propanoic acid]
SARS-COV-2 [1]; Vero cells
  suppression of SARS-COV-2 infection (N protein expression), in words: suppressed SARS-COV-2 infection at high concentrations
HCoV-OC43
  IC50: 2.1 µM

## C[n+]1cc(NC(=O)c2ccc3ccc4ccc(C(=O)Nc5cc6ccccc6[n+](C)c5)nc4c3n2)cc2ccccc21 [PhenDC3, 2-N, 9-N-bis(1-methylquinolin-1-ium-3-yl)-1,10-phenanthroline-2,9-dicarboxamide]
[2]
  Tm in ° C. with compound: 71.44 °C
  ΔTm: 23.71 °C
[3]
  Tm in ° C. with compound: 47.74 °C
  ΔTm: −5.64 °C
[4]
  Tm in ° C. with compound: 85.41 °C
  ΔTm: 35.1 °C
[5]
  Tm in ° C. with compound: 82.96 °C
  ΔTm: 25.75 °C
SARS-COV-2 [6]; 24 hours after infection
  IC50: 24.5 µM
SARS-COV-2 [6]; 48 hours after infection
  IC50: 23.2 µM
[7]
  Tm in ° C. with compound: 79.68 °C
  ΔTm: 17.02 °C
[8]
  Tm in ° C. with compound: 91.7 °C
  ΔTm: 20.56 °C
Vero cells
  cytotoxicity in Vero cells: no cytotoxicity was observed
N1-Mut-G4-3467
  EYFP expression, concentration-dependent suppression: not suppressed
[9]
  Tm in ° C. with compound: 98.81 °C
  ΔTm: 33.25 °C
[10]
  Tm in ° C. with compound: 82.00 °C
  ΔTm: 10.41 °C
N1-WT-G4-644 (Nsp1 G4)
  EYFP expression reduced by: 50%
N1-WT-G4-3467 (Nsp3 G4)
  reduction in EYFP expression: 70%
[11]; 15 μM RNA G4, 30 μM compound, FIGS. 6A and 6B
  effect on stability of SARS-COV-2 G4 (ΔTm), in words: significantly stabilized most G4s
[11]; among the 25 G4s predicted for SARS-COV-2
  proportion of the G4s with ΔTm>20° C.: 72%
[11]; of the 25 SARS-COV-2 G4s
  number of G4s Destabilized: 2
N1-WT-G4-353 (Nsp1 G4); N1-WT-G4-353, compound at 50 μM
  EYFP expression reduced by: 90%
N1-WT-G4-353 (Nsp1 G4); N1-WT-G4-353, concentrations less than 50 μM
  suppressing EYFP reporter expression: not effective
[12]
  Tm in ° C. with compound: 86.32 °C
  ΔTm: 27.49 °C
[13]
  Tm in ° C. with compound: 91.3 °C
  ΔTm: 35.78 °C
[14]
  Tm in ° C. with compound: 70.40 °C
  ΔTm: 5.7 °C
HEK293T cells
  reduction in viability, HEK293T cells: 25%
[15]
  Tm in ° C. with compound: 60.21 °C
  ΔTm: 3.1 °C
[16]
  Tm in ° C. with compound: 57.51 °C
  ΔTm: −13.68 °C
[17]
  Tm in ° C. with compound: 63.49 °C
  ΔTm: 15.6 °C

## C[n+]1ccccc1-c1c2nc(c(-c3cccc[n+]3C)c3ccc([nH]3)c(-c3cccc[n+]3C)c3nc(c(-c4cccc[n+]4C)c4ccc1[nH]4)C=C3)C=C2 [TMPyP2, 5,10,15,20-tetrakis(1-methylpyridin-1-ium-2-yl)-21,23-dihydroporphyrin]
HCoV-OC43
  IC50: 11.7 µM

## C[n+]1ccc(-c2c3nc(c(-c4cc[n+](C)cc4)c4ccc([nH]4)c(-c4cc[n+](C)cc4)c4ccc([nH]4)c(-c4cc[n+](C)cc4)c4nc2C=C4)C=C3)cc1 [TMPyP4, 5,10,15,20-tetrakis(1-methylpyridin-1-ium-4-yl)-21,23-dihydroporphyrin]
HCoV-OC43
  IC50: 2.8 µM

## CCN(CC)CCCC(C)Nc1ccnc2cc(Cl)ccc12 (stereo not drawn) [chloroquine, reference compound]
SARS-COV-2 [1]; [18]
  IC50: 9.63 µM

## Cc1cccc(C)c1OCC(=O)N[C@@H](Cc1ccccc1)[C@@H](O)C[C@H](Cc1ccccc1)NC(=O)[C@H](C(C)C)N1CCCNC1=O [lopinavir, reference compound]
SARS-COV-2 [1]; [18]
  IC50: 12.1 µM

## CCC(CC)COC(=O)[C@H](C)N[P@](=O)(OC[C@H]1O[C@@](C#N)(c2ccc3c(N)ncnn23)[C@H](O)[C@@H]1O)Oc1ccccc1 [remdesivir, reference compound]
SARS-COV-2 [1]; Severe acute respiratory syndrome coronavirus 2, Vero, 24 h
  IC50: 8.78 µM
